From US8278452B2, “Heterocyclic compounds and compositions as c-kit and PDGFR kinase inhibitors” (IRM LLC, priority 2008, dated 2012)

Test system: Mo7e cells which endogenously express c-kit
Assay: Mo7e assay: inhibition of SCF dependent proliferation (MTT)
Format: cell-based
Settings: Table 1; SCF stimulated Mo7e cells, 48 hours, MTT
Experimental: The compounds described herein are tested for inhibition of SCF dependent proliferation using Mo7e cells which endogenously express c-kit in a 96 well format. Two-fold serially diluted test compounds (Cmax=10 μM) are evaluated for their antiproliferative activity of Mo7e cells stimulated with human recombinant SCF. After 48 hours of incubation at 37° C., cell viability is measured by using a MTT colorimetric assay from Promega. IC50 values for compounds of the invention are quoted in table 1, supra.

Row | Structure (SMILES) | IC50 [µM]
1 | Cc1cc2c(cn1)cc(-c1cc(Nc3nsc(-c4ccccc4)n3)ccc1C)c(=O)n2C [Compound G1, 1,7-dimethyl-3-(2-methyl-5-(5-phenyl-1,2,4-thiadiazol-3-ylamino)phenyl)-1,6-naphthyridin-2(1H)-one] | 0.733
2 | Cc1cc2c(cn1)cc(-c1cc(Nc3noc(-c4ccc(F)cn4)n3)ccc1C)c(=O)n2C [Compound A25, 3-(5-{[5-(5-fluoropyridin-2-yl)-1,2,4-oxadiazol-3-yl]amino}-2-methylphenyl)-1,7-dimethyl-1,2-dihydro-1,6-naphthyridin-2-one] | 0.082
3 | Cc1cc2c(cn1)cc(-c1cc(Nc3noc(-c4ccc(F)cc4F)n3)ccc1C)c(=O)n2C [Compound A61, 3-(5-{[5-(2,4-difluorophenyl)-1,2,4-oxadiazol-3-yl]amino}-2-methylphenyl)-1,7-dimethyl-1,2-dihydro-1,6-naphthyridin-2-one] | 0.097
4 | Cc1cc2c(cn1)cc(-c1cc(Nc3noc(C4Cc5ccccc5O4)n3)ccc1C)c(=O)n2C (stereo not drawn) [Compound A98, 3-(5-{[5-(2,3-dihydro-1-benzofuran-2-yl)-1,2,4-oxadiazol-3-yl]amino}-2-methylphenyl)-1,7-dimethyl-1,2-dihydro-1,6-naphthyridin-2-one] | 0.389
5 | Cc1cc2c(cn1)cc(-c1cc(Nc3noc(C4CC(=O)C4)n3)ccc1C)c(=O)n2C [Compound A72, 1,7-dimethyl-3-(2-methyl-5-{[5-(3-oxocyclobutyl)-1,2,4-oxadiazol-3-yl]amino}phenyl)-1,2-dihydro-1,6-naphthyridin-2-one] | 0.204
6 | Cc1cc2c(cn1)cc(-c1cc(Nc3noc(CC(C)C)n3)ccc1C)c(=O)n2C [Compound A68, 3-(5-(5-isobutyl-1,2,4-oxadiazol-3-ylamino)-2-methylphenyl)-1,7-dimethyl-1,6-naphthyridin-2(1H)-one] | 0.128
7 | Cc1cc2c(cn1)cc(-c1cc(Nc3nc(-c4ccccc4)no3)ccc1C)c(=O)n2C [Compound E1, 1,7-dimethyl-3-{2-methyl-5-[(3-phenyl-1,2,4-oxadiazol-5-yl)amino]phenyl}-1,2-dihydro-1,6-naphthyridin-2-one] | 0.423
8 | Cc1cc2c(cn1)cc(-c1cc(Nc3nnc(C4CCCC4)[nH]3)ccc1C)c(=O)n2C [Compound C1, 3-(5-(5-cyclopentyl-4H-1,2,4-triazol-3-ylamino)-2-methylphenyl)-1,7-dimethyl-1,6-naphthyridin-2(1H)-one] | 0.12
9 | Cc1cc2c(cn1)cc(-c1cc(Nc3noc(-c4ccccc4C)n3)ccc1C)c(=O)n2C [Compound A16, 1,7-dimethyl-3-(2-methyl-5-{[5-(2-methylphenyl)-1,2,4-oxadiazol-3-yl]amino}phenyl)-1,2-dihydro-1,6-naphthyridin-2-one] | 0.114
10 | Cc1cc2c(cn1)cc(-c1cc(Nc3nnc(C(C)(C)C)o3)ccc1C)c(=O)n2C [Compound B8, 3-{5-[(5-tert-butyl-1,3,4-oxadiazol-2-yl)amino]-2-methylphenyl}-1,7-dimethyl-1,2-dihydro-1,6-naphthyridin-2-one] | 0.211
11 | Cc1cc2c(cn1)cc(-c1cc(Nc3noc(C4(C)CC4)n3)ccc1C)c(=O)n2C [Compound A34, 1,7-dimethyl-3-(2-methyl-5-(5-(1-methylcyclopropyl)-1,2,4-oxadiazol-3-ylamino)phenyl)-1,6-naphthyridin-2(1H)-one] | 0.083
12 | Cc1cc2c(cn1)cc(-c1cc(Nc3noc(-c4nc(C)oc4C)n3)ccc1C)c(=O)n2C [Compound A45, 3-(5-{[5-(2,5-dimethyl-1,3-oxazol-4-yl)-1,2,4-oxadiazol-3-yl]amino}-2-methylphenyl)-1,7-dimethyl-1,2-dihydro-1,6-naphthyridin-2-one] | 0.263
13 | Cc1cc2c(cn1)cc(-c1cc(Nc3cc(-c4ccccc4)on3)ccc1C)c(=O)n2C [Compound D1, 1,7-dimethyl-3-(2-methyl-5-(5-phenylisoxazol-3-ylamino)phenyl)-1,6-naphthyridin-2(1H)-one] | 0.068
14 | Cc1cc2c(cn1)cc(-c1cc(Nc3nnc(C4CCCCC4)o3)ccc1C)c(=O)n2C [Compound B10, 3-{5-[(5-cyclohexyl-1,3,4-oxadiazol-2-yl)amino]-2-methylphenyl}-1,7-dimethyl-1,2-dihydro-1,6-naphthyridin-2-one] | 0.378
15 | Cc1cc2c(cn1)cc(-c1cc(Nc3nnc(-c4cccc(Cl)c4)[nH]3)ccc1C)c(=O)n2C [Compound C7, 3-(5-{[5-(3-chlorophenyl)-4H-1,2,4-triazol-3-yl]amino}-2-methylphenyl)-1,7-dimethyl-1,2-dihydro-1,6-naphthyridin-2-one] | 0.378
16 | Cc1cc2c(cn1)cc(-c1cc(Nc3noc(-c4cccc(Cl)c4)n3)ccc1C)c(=O)n2C [Compound A20, 3-(5-{[5-(3-chlorophenyl)-1,2,4-oxadiazol-3-yl]amino}-2-methylphenyl)-1,7-dimethyl-1,2-dihydro-1,6-naphthyridin-2-one] | 0.33
17 | Cc1cc2c(cn1)cc(-c1cc(Nc3noc(-c4cccc(C#N)c4)n3)ccc1C)c(=O)n2C [Compound A40, 3-(3-{[3-(1,7-dimethyl-2-oxo-1,2-dihydro-1,6-naphthyridin-3-yl)-4-methylphenyl]amino}-1,2,4-oxadiazol-5-yl)benzonitrile] | 0.299

Row | Structure (SMILES) | IC50 [µM]
18 | Cc1cncc(-c2nc(Nc3ccc(C)c(-c4cc5cnc(C)cc5n(C)c4=O)c3)no2)c1 [Compound A53, 1,7-dimethyl-3-(2-methyl-5-{[5-(5-methylpyridin-3-yl)-1,2,4-oxadiazol-3-yl]amino}phenyl)-1,2-dihydro-1,6-naphthyridin-2-one] | 0.427
19 | Cc1cc2c(cn1)cc(-c1cc(Nc3noc(-c4ccncc4)n3)ccc1C)c(=O)n2C [Compound A50, 1,7-dimethyl-3-(2-methyl-5-{[5-(pyridin-4-yl)-1,2,4-oxadiazol-3-yl]amino}phenyl)-1,2-dihydro-1,6-naphthyridin-2-one] | 0.271
20 | Cc1cc2c(cn1)cc(-c1cc(Nc3cc(-c4ccc(OC(F)(F)F)cc4)on3)ccc1C)c(=O)n2C [Compound D2] | 0.428
21 | Cc1cc2c(cn1)cc(-c1cc(Nc3noc(C4CC(C)(O)C4)n3)ccc1C)c(=O)n2C (stereo not drawn) [Compound A84, 3-(5-{[5-(3-hydroxy-3-methylcyclobutyl)-1,2,4-oxadiazol-3-yl]amino}-2-methylphenyl)-1,7-dimethyl-1,2-dihydro-1,6-naphthyridin-2-one] | 0.176
22 | Cc1cc2c(cn1)cc(-c1cc(Nc3noc(-c4ccc(OC(F)(F)F)cc4)n3)ccc1C)c(=O)n2C [Compound A41, 1,7-dimethyl-3-[2-methyl-5-({5-[4-(trifluoromethoxy)phenyl]-1,2,4-oxadiazol-3-yl}amino)phenyl]-1,2-dihydro-1,6-naphthyridin-2-one] | 0.053
23 | Cc1cc2c(cn1)cc(-c1cc(Nc3noc(C4CCCCO4)n3)ccc1C)c(=O)n2C (stereo not drawn) [Compound A85, 1,7-dimethyl-3-(2-methyl-5-{[5-(oxan-2-yl)-1,2,4-oxadiazol-3-yl]amino}phenyl)-1,2-dihydro-1,6-naphthyridin-2-one] | 0.079
24 | Cc1cc2c(cn1)cc(-c1cc(Nc3nnc(C4CCCCC4)[nH]3)ccc1C)c(=O)n2C [Compound C3, 3-{5-[(5-cyclohexyl-4H-1,2,4-triazol-3-yl)amino]-2-methylphenyl}-1,7-dimethyl-1,2-dihydro-1,6-naphthyridin-2-one] | 0.279
25 | Cc1cc2c(cn1)cc(-c1cc(Nc3noc(C4CCCN4C)n3)ccc1C)c(=O)n2C (stereo not drawn) [Compound A23, 1,7-dimethyl-3-(2-methyl-5-{[5-(1-methylpyrrolidin-2-yl)-1,2,4-oxadiazol-3-yl]amino}phenyl)-1,2-dihydro-1,6-naphthyridin-2-one] | 0.208
26 | Cc1cc2c(cn1)cc(-c1cc(Nc3noc(-c4ccc(Cl)cn4)n3)ccc1C)c(=O)n2C [Compound A26, 3-(5-{[5-(5-chloropyridin-2-yl)-1,2,4-oxadiazol-3-yl]amino}-2-methylphenyl)-1,7-dimethyl-1,2-dihydro-1,6-naphthyridin-2-one] | 0.027
27 | Cc1cc2c(cn1)cc(-c1cc(Nc3noc(-c4ccc(O)cc4)n3)ccc1C)c(=O)n2C [Compound A36, 3-(5-{[5-(4-hydroxyphenyl)-1,2,4-oxadiazol-3-yl]amino}-2-methylphenyl)-1,7-dimethyl-1,2-dihydro-1,6-naphthyridin-2-one] | 0.375
28 | Cc1cc2c(cn1)cc(-c1cc(Nc3cc(C4CCCO4)on3)ccc1C)c(=O)n2C (stereo not drawn) [Compound D5] | 0.197
29 | Cc1cc2c(cn1)cc(-c1cc(Nc3nnc(C4CC4)o3)ccc1C)c(=O)n2C [Compound B9, 3-{5-[(5-cyclopropyl-1,3,4-oxadiazol-2-yl)amino]-2-methylphenyl}-1,7-dimethyl-1,2-dihydro-1,6-naphthyridin-2-one] | 0.334
30 | Cc1cc2c(cn1)cc(-c1cc(Nc3cc(-c4ccc(F)cc4Cl)on3)ccc1C)c(=O)n2C [Compound D8] | 0.361
31 | Cc1cc2c(cn1)cc(-c1cc(Nc3nnc(-c4ccc(F)cc4)o3)ccc1C)c(=O)n2C [Compound B6, 3-(5-{[5-(4-fluorophenyl)-1,3,4-oxadiazol-2-yl]amino}-2-methylphenyl)-1,7-dimethyl-1,2-dihydro-1,6-naphthyridin-2-one] | 0.121
32 | Cc1cc2c(cn1)cc(-c1cc(Nc3noc(-c4ccc(CN)cc4)n3)ccc1C)c(=O)n2C [Compound A90, 3-[5-({5-[4-(aminomethyl)phenyl]-1,2,4-oxadiazol-3-yl}amino)-2-methylphenyl]-1,7-dimethyl-1,2-dihydro-1,6-naphthyridin-2-one] | 0.434
33 | Cc1cc2c(cn1)cc(-c1cc(Nc3noc(-c4ccc(F)c(F)c4)n3)ccc1C)c(=O)n2C [Compound A62, 3-(5-{[5-(3,4-difluorophenyl)-1,2,4-oxadiazol-3-yl]amino}-2-methylphenyl)-1,7-dimethyl-1,2-dihydro-1,6-naphthyridin-2-one] | 0.126
